What was measured:
Format in all cases: cell-based
MDA−MB−231 cells [1] = assay: DCFDA cellular ROS detection assay; settings: complexes at IC50, TBHP 20 µM
Experimental: (§1) DCFDA/H2DCFDA-cellular ROS Assay Kit (Abcam, Cambridge, MA, USA) was used to investigate the production of ROS in treated cells, as previously described. MDA−MB−231 or HT29 cells were seeded at a total concentration of 2500 cells/well in 96-well plates and incubated overnight. DMEM was then removed, and cells washed with 1× kit buffer, and stained with 25 µM 2′,7′-dichlorofluorescein diacetate (DCFH-DA) for 45 min. […] After that, the plates were scanned using the Glo-Max®-Multimode microplate reader (Promega Corporation, Alexandra, VIC, Australia) at an excitation/emission of 485/535 nm to detect fluorescence (relative fluorescence units, or RFU) at various time points. A positive control was generated using 20 µM tert-butyl hydroperoxide (TBHP), and the same procedure was applied with DCFDA. Three independent experiments in triplicates were implemented.

HT29 cells [2] = assay: DCFDA cellular ROS detection assay; settings: complexes at IC50, TBHP 20 µM
Experimental: as §1

MDA−MB−231 cells [3] = assay: Cellular uptake of Pt by ICP-MS; settings: for Intracellular Concentration: MDA−MB−231, 3 µM; for Intracellular/extracellular ratio: MDA−MB−231, extracellular 3 µM
Experimental: (§2) A final concentration of 10^6 cells/well of MDA−MB−231 and HT29 cells were seeded in 6-well plates and incubated overnight to adhere. The cells were then treated with a final concentration of 3 µM of either Pt^II or Pt^IV complexes. After 0, 0.5, 1, 3, 6, 12, 24 or 30 h, the medium was removed, and the cells were washed three times with cold PBS and allowed to dry. Then, 400 µL of 69% HNO3 (Baseline grade nitric acid with PPB level reported impurities, Seastar Chemicals, Sidney, BC, Canada) was added to each well for 90 min to ensure complete digestion. […] Iridium 193 (^193Ir) was mixed online and introduced into the ICP-MS to check uptake efficiency and matrix interference. All ICP-MS parameters are described in Table S2 and elaborated in Method S3. The results represent an average of three different experiments run in triplicate (±SEM) and expressed as nmol/10^6 cells or µM/cell. Quantification of the cellular uptake of Pt was based on external standards (Certified Standard from Sigma-Aldrich, VIC, Australia) containing Internal standard Ir.
(§3) Method S3. Cellular Uptake of Platinum(II) and (IV) complexes
(§4) A final concentration of 10^6 cells/well of MDA−MB−231 and HT29 cells were seeded in 6-well plates and incubated overnight to adhere. The cells were then treated with a final concentration of 3 µM of either PtII or PtIV complexes. After 0, 0.5, 1, 3, 6, 12, 24 or 30 h, the medium was removed, and the cells were washed three times with cold PBS and allowed to dry. Then, 400 µL of 69% HNO3 (Baseline grade nitric acid with Instrument Quality Grade Nitric acid with ppb level reported impurities, Seastar Chemicals, Sidney, Canada) was added to each well for 90 mins to ensure complete digestion. The digests were then moved to trace -metal free 15 mL centrifuge tubes […]
(§5) concentration of 3.5-4%. Iridium 193 (193Ir), selected as internal standard, has similar first ionisation potential and mass to Platinum 195 (195Pt). A concentration of 50 ppb 193Ir in 2% HNO3 solution was chosen for the Perkin Elmer NexION® Inductively Coupled Plasma Mass Spectrometer (ICP-MS) as it produced a steady state signal intensity of 600-800K counts per second. Mixing and injection of sample and internal standard solution was carried out using an ESI 7 port Valve system (Elemental Scientific, USA). A high-quality Solvent Flex 2 stop pump with 0.38 mm ID tubing was used in conjunction with the ICP-MS’s Peristaltic pump set at 20 […]
(§6) standard both, at 0.25 mL/min) being 0.5 mL/min. The ICP-MS was tuned to high sensitivity settings to facilitate detection of low Pt concentrations in samples. This was done by adjusting the nebuliser gas flow between […] to achieve maximum Indium 115 intensity whilst maintaining an acceptable average oxide and doubly charged ratio of 1.64-2.24% and 1.17-1.69% respectively. The analysis method was set to peak hopping mode with a dwell time of […] and 45 sweeps through the mass spectrum per sample read. […]
(§7) peak integration time of 4500 milliseconds and enabled the collection of numerous data points for peak integration thereby increasing accuracy. The ICP-MS was tuned daily, and its performance optimised to a set of suppliers recommended settings. Analysis was only carried out when optimal oxide and doubly charged ratios with high ionic sensitivity was achieved. All ICP-MS parameters are described in Table S2. The results represent an average of three different experiments run in triplicates (± SEM) and expressed as nmol/106 cells or µM/cell. Quantification of the cellular uptake of Pt was based on external standards (Certified Standard from Sigma-Aldrich NSW, Australia) containing Internal standard Ir. […]

HT29 cells [4] = assay: Cellular uptake of Pt by ICP-MS; settings: for Intracellular Concentration: HT29, 3 µM; for Intracellular/extracellular ratio: HT29, extracellular 3 µM
Experimental: as §2, §3, §4, §5, §6, §7

MCF10A = assay: WST-1 cytotoxicity, 72 h; settings: mean ± SEM
Experimental: Cells were seeded in 96-well flat-bottom culture plates at a concentration of 1000 cells per well. […] After 72 h, the medium was removed and replaced with new medium. The cell viability reagent WST-1 (10 µL, Roche Diagnostics, Indianapolis, IN, USA) was added to each well. After an hour, the absorbance was measured at 450 nm using a versatile microplate reader (Bio-strategy, Campbellfield, VIC, Australia). Three separate experiments were performed, each with n = 3 replicates. GraphPad prism 10 was used to calculate apparent IC50 values using the nonlinear regression model Y = Bottom + (Top-Bottom)/(1 + 10^(X-LogIC50)) where Top and bottom are plateaus in the y-axis (% survival). The R^2 value of the curve fits ranged from 0.8972 to 0.9794.

Structure (SMILES): N.N.[Cl][Pt][Cl] [Cisplatin, cisplatin]
- ROS production (MDA−MB−231 cells [1]; MDA−MB−231, 24 h): 279.82 RFU
- ROS production (MDA−MB−231 cells [1]; MDA−MB−231, 48 h): 325.96 RFU
- ROS production (MDA−MB−231 cells [1]; MDA−MB−231, 72 h): 369.97 RFU
- ROS production (HT29 cells [2]; HT29, 24 h): 205.39 RFU
- ROS production (HT29 cells [2]; HT29, 48 h): 285.11 RFU
- ROS production (HT29 cells [2]; HT29, 72 h): 316.55 RFU
- Intracellular Concentration (MDA−MB−231 cells [3]; 0 h): 0.56 nmol/10^6 cells
- Intracellular Concentration (MDA−MB−231 cells [3]; 0.5 h): 0.15 nmol/10^6 cells
- Intracellular Concentration (MDA−MB−231 cells [3]; 1 h): 0.14 nmol/10^6 cells
- Intracellular Concentration (MDA−MB−231 cells [3]; 3 h): 0.12 nmol/10^6 cells
- Intracellular Concentration (MDA−MB−231 cells [3]; 6 h): 0.18 nmol/10^6 cells
- Intracellular Concentration (MDA−MB−231 cells [3]; 12 h): 0.19 nmol/10^6 cells
- Intracellular Concentration (MDA−MB−231 cells [3]; 24 h): 0.24 nmol/10^6 cells
- Intracellular Concentration (MDA−MB−231 cells [3]; 30 h): 1.29 nmol/10^6 cells
- Intracellular Concentration (HT29 cells [4]; 0 h): 0.36 nmol/10^6 cells
- Intracellular Concentration (HT29 cells [4]; 0.5 h): 0.94 nmol/10^6 cells
- Intracellular Concentration (HT29 cells [4]; 1 h): 0.14 nmol/10^6 cells
- Intracellular Concentration (HT29 cells [4]; 3 h): 0.28 nmol/10^6 cells
- Intracellular Concentration (HT29 cells [4]; 6 h): 0.10 nmol/10^6 cells
- Intracellular Concentration (HT29 cells [4]; 12 h): 0.57 nmol/10^6 cells
- Intracellular Concentration (HT29 cells [4]; 24 h): 1.02 nmol/10^6 cells
- Intracellular Concentration (HT29 cells [4]; 30 h): 0.71 nmol/10^6 cells
- IC50 (MCF10A): 4710 ± 1470 nM

Structure (SMILES): Cc1cc2cccnc2c2ncccc12.N[C@H]1CCCC[C@@H]1N.O=[N+]([O-])[O-].O=[N+]([O-])[O-].[Pt+2] [Pt^II5MESS, [Pt(5-methyl-1,10-phenanthroline)(1S,2S-diaminocyclohexane)](NO3)2]
- ROS production (MDA−MB−231 cells [1]; MDA−MB−231, 24 h): 316.23 RFU
- ROS production (MDA−MB−231 cells [1]; MDA−MB−231, 48 h): 372.49 RFU
- ROS production (MDA−MB−231 cells [1]; MDA−MB−231, 72 h): 399.97 RFU
- ROS production (HT29 cells [2]; HT29, 24 h): 278.00 RFU
- ROS production (HT29 cells [2]; HT29, 48 h): 362.89 RFU
- ROS production (HT29 cells [2]; HT29, 72 h): 404.44 RFU
- Intracellular Concentration (MDA−MB−231 cells [3]; 0 h): 0.37 nmol/10^6 cells
- Intracellular Concentration (MDA−MB−231 cells [3]; 0.5 h): 0.44 nmol/10^6 cells
- Intracellular Concentration (MDA−MB−231 cells [3]; 1 h): 0.39 nmol/10^6 cells
- Intracellular Concentration (MDA−MB−231 cells [3]; 3 h): 0.98 nmol/10^6 cells
- Intracellular Concentration (MDA−MB−231 cells [3]; 6 h): 1.25 nmol/10^6 cells
- Intracellular Concentration (MDA−MB−231 cells [3]; 12 h): 4.82 nmol/10^6 cells
- Intracellular Concentration (MDA−MB−231 cells [3]; 24 h): 5.64 nmol/10^6 cells
- Intracellular Concentration (MDA−MB−231 cells [3]; 30 h): 7.63 nmol/10^6 cells
- Intracellular/extracellular ratio (MDA−MB−231 cells [3]; 0 h): 57.65
- Intracellular/extracellular ratio (MDA−MB−231 cells [3]; 0.5 h): 69.63
- Intracellular/extracellular ratio (MDA−MB−231 cells [3]; 1 h): 61.30
- Intracellular/extracellular ratio (MDA−MB−231 cells [3]; 3 h): 154.59
- Intracellular/extracellular ratio (MDA−MB−231 cells [3]; 6 h): 196.09
- Intracellular/extracellular ratio (MDA−MB−231 cells [3]; 12 h): 757.65
- Intracellular/extracellular ratio (MDA−MB−231 cells [3]; 24 h): 885.63
- Intracellular/extracellular ratio (MDA−MB−231 cells [3]; 30 h): 1199.77
- Intracellular Concentration (HT29 cells [4]; 0 h): 0.28 nmol/10^6 cells
- Intracellular Concentration (HT29 cells [4]; 0.5 h): 0.79 nmol/10^6 cells
- Intracellular Concentration (HT29 cells [4]; 1 h): 1.26 nmol/10^6 cells
- Intracellular Concentration (HT29 cells [4]; 3 h): 2.75 nmol/10^6 cells
- Intracellular Concentration (HT29 cells [4]; 6 h): 4.65 nmol/10^6 cells
- Intracellular Concentration (HT29 cells [4]; 12 h): 19.18 nmol/10^6 cells
- Intracellular Concentration (HT29 cells [4]; 24 h): 21.18 nmol/10^6 cells
- Intracellular Concentration (HT29 cells [4]; 30 h): 21.24 nmol/10^6 cells
- Intracellular/extracellular ratio (HT29 cells [4]; 0 h): 44.37
- Intracellular/extracellular ratio (HT29 cells [4]; 0.5 h): 125.00
- Intracellular/extracellular ratio (HT29 cells [4]; 1 h): 197.63
- Intracellular/extracellular ratio (HT29 cells [4]; 3 h): 431.44
- Intracellular/extracellular ratio (HT29 cells [4]; 6 h): 730.89
- Intracellular/extracellular ratio (HT29 cells [4]; 12 h): 3013.21
- Intracellular/extracellular ratio (HT29 cells [4]; 24 h): 3327.94
- Intracellular/extracellular ratio (HT29 cells [4]; 30 h): 3337.20
- IC50 (MCF10A): 1180 ± 1750 nM

From article PMC11274883, “Anticancer Effect of Pt^[sequence], Pt^II5MESS, Pt^II56MESS and Their Platinum(IV)-Dihydroxy Derivatives against Triple-Negative Breast Cancer and Cisplatin-Resistant Colorectal Cancer” (Cancers, 2024)
